Measured values published in BindingDB's records for doi:10.1016/j.bmcl.2016.04.011 (The University of Jordan, 2016).
pIC50: −log10 of the molar value.

Tests used:
[1] = Inhibition of EGFR in human MDA231 cells assessed as growth inhibition after 24 hrs by MTT assay
[2] = Inhibition of PI3Kalpha in human HCT116 cells coexpressing PI3Kalpha H1047R mutant assessed as growth inhibition after 24 hrs by MTT assay

Row | Structure (SMILES) | pIC50 [1] | pIC50 [2]
1 | CC(O)c1cccc(NC(=O)c2cc3ccccc3[nH]2)c1 (stereo unspecified) | 4.47 | 4.42
2 | CC(=O)c1ccc(NC(=O)c2cc3ccccc3[nH]2)cc1 | 4.30 | 4.21
3 | CC(O)c1ccc(NC(=O)c2cc3ccccc3[nH]2)cc1 (stereo unspecified) | 4.46 | 4.43

Continued, values first:

Row | pIC50 [1] | pIC50 [2] | Structure (SMILES)
4 | 4.42 | 4.36 | O=C(Nc1ccc(C(O)c2ccccc2)cc1)c1cc2ccccc2[nH]1 (stereo unspecified)
5 | 4.35 | 4.26 | O=C(c1ccccc1)c1cccc(NC(=O)c2cc3ccccc3[nH]2)c1
6 | 4.24 | 4.19 | CC(=O)c1cccc(NC(=O)c2cc3ccccc3[nH]2)c1
7 | 4.31 | 4.27 | O=C(c1ccccc1)c1ccc(NC(=O)c2cc3ccccc3[nH]2)cc1
8 | 4.82 | 4.72 | O=C(Nc1cccc(C(O)c2ccccc2)c1)c1cc2ccccc2[nH]1 (stereo unspecified)
